Tests used:
Assay type in all cases: cell-based
[1] = tested on: NS5A chimeric genotype 2a JFH-1 replicon with genotype 2a J6 strain NS5A gene (M31); assay: HCV genotype 2a J6 NS5A chimeric replicon assay, transient (t); conditions: Hepatitis C virus, 72 h, read-out: 2a J6 (t) (nM)
Experimental: (§1) Evaluation of cell-based anti-HCV activity: Antiviral potency (EC50) was determined using a Renilla luciferase (RLuc)-based HCV replicon reporter assay. To perform the assay for genotype 1 and 2a JFH-1, stable HCV 1a RLuc replicon cells (harboring a dicistronic genotype 1a H77 replicon that encodes a RLuc reporter), stable HCV lb RLuc replicon cells (harboring a dicistronic genotype 1b Conl replicon that encodes a RLuc reporter), or stable HCV 2a JFH-1 Rluc replicon cells (harboring a dicistronic genotype 2a JFH-1 replicon that encodes a RLuc reporter; with L31 present in NS5A) were dispensed into 384-well plates for EC50 assays. To perform the assay for genotype 2a (with M31 present in NS5A) or 2b, NS5A chimeric genotype 2a JFH-1 replicons that encodes a RLuc-Neo reporter and either genotype 2a J6 strain NS5A gene or genotype 2b MD2b-1 strain NS5A gene (both with M31 present) respectively, were either transiently transfected (t) into Huh-Lunet cells or were established as stably replicating replicon cells (s) is provided. Either cells were dispensed into 384-well plates for EC50 assays. To perform the assay for genotype 3 and 4, NS5A chimeric genotype 1b Conl replicons that encodes a Pi-RLuc reporter and either genotype 3a S52 strain NS5A gene or genotype 4a ED43 strain NS5A gene respectively, were transiently transfected (t) into Huh-Lunet cells, which were subsequently dispensed into 384-well plates. Compounds were dissolved in DMSO at a concentration of 10 mM and diluted in DMSO either manually or using an automated pipeting instrument. Serially 3-fold diluted compounds were either manually mixed with cell culture media and added to the seeded cells or directly added to the cells using an automated instrument. DMSO was used as a negative (solvent; no inhibition) control, and the protease inhibitor ITMN-191 was included at a concentration >100×EC50 as a positive control. 72 hours later, cells were lysed and Renilla luciferase activity quantified as recommended by the manufacturer (Promega-Madison, Wis.). Non-linear regression was performed to calculate EC50 values.

[2] = tested on: stable HCV 1b RLuc replicon cells (genotype 1b Con1 replicon); assay: HCV genotype 1b RLuc replicon reporter assay; conditions: Hepatitis C virus; stable genotype 1b Con1 RLuc replicon cells, 72 hours
Experimental: as §1

[3] = tested on: stable HCV 1a RLuc replicon cells (genotype 1a H77 replicon); assay: HCV genotype 1a RLuc replicon reporter assay; conditions: Hepatitis C virus; stable genotype 1a H77 RLuc replicon cells, 72 hours
Experimental: as §1

[4] = tested on: NS5A chimeric genotype 2a JFH-1 replicon with genotype 2b MD2b-1 strain NS5A gene (M31); assay: HCV genotype 2b NS5A chimeric replicon assay, stable (s); conditions: Hepatitis C virus, 72 h, read-out: 2b (s) (nM)
Experimental: as §1

[5] = tested on: stable HCV 2a JFH-1 Rluc replicon cells (L31 present in NS5A); assay: HCV genotype 2a JFH-1 RLuc replicon reporter assay; conditions: Hepatitis C virus, 72 h, read-out: 2a JFH (nM)
Experimental: as §1

[6] = tested on: NS5A chimeric genotype 1b Con1 replicon with genotype 4a ED43 strain NS5A gene; assay: HCV genotype 4a NS5A chimeric replicon assay; conditions: Hepatitis C virus, 72 h, read-out: 4a (s) (nM)
Experimental: as §1, with “[…],” for “were transiently transfected (t) into Huh-Lunet cells,”

[7] = tested on: NS5A chimeric genotype 1b Con1 replicon with genotype 3a S52 strain NS5A gene; assay: HCV genotype 3a NS5A chimeric replicon assay; conditions: Hepatitis C virus, 72 h, read-out: 3a (nM)
Experimental: as §1

Structure (SMILES)	EC50 [1] [nM]	EC50 [2] [nM]	EC50 [3] [nM]	EC50 [4] [nM]	EC50 [5] [nM]	EC50 [6] [nM]	EC50 [7] [nM]
COC[C@H]1C[C@@H](c2ncc(-c3ccc4c(c3)COc3cc5c(ccc6nc([C@@H]7CC[C@H](C)N7C(=O)[C@@H](NC(=O)OC)C(C)C)[nH]c65)cc3-4)[nH]2)N(C(=O)[C@@H](NC(=O)OC)C2CCOCC2)C1 [Comp 2, reference compound]	0.083	0.064	0.055				
COC(=O)N[C@H](C(=O)N1CCC[C@H]1c1ncc(-c2ccc3c(c2)COc2cc4c(ccc5nc([C@@H]6CCCN6C(=O)[C@@H](NC(=O)OC)C6CCOCC6)[nH]c54)cc2-3)[nH]1)C1CCOCC1 [Comp 11, reference compound]		0.416	0.203	0.203			
COC(=O)N[C@H](C(=O)N1[C@@H](C)CC[C@H]1c1ncc(-c2ccc3c(c2)COc2cc4c(ccc5nc([C@@H]6CC[C@H](C)N6C(=O)[C@@H](NC(=O)OC)C6(C)CCOCC6)[nH]c54)cc2-3)[nH]1)C(C)C [Example AD, Methyl [(2S)-1-{(2S,5S)-2-[5-(2-{(2S,5S)-1-[(2S)-2-[(methoxycarbonyl)amino]-2-(4-methyltetrahydro-2H-pyran-4-yl)acetyl]-5-methylpyrrolidin-2-yl}-1,11-dihydroisochromeno[4′,3′:6,7]naphtho[1,2-d]imidazol-9-yl)-1H-imidazol-2-yl]-5-methylpyrrolidin-1-yl}-3-methyl-1-oxobutan-2-yl]carbamate]	1.02	0.031	0.021	0.351	0.027	0.018	0.074
CC[C@H]1CC[C@@H](c2nc3ccc4cc5c(cc4c3[nH]2)OCc2cc(-c3cnc([C@@H]4CC[C@H](C)N4C(=O)[C@@H](NC(=O)OC)C(C)C)[nH]3)ccc2-5)N1C(=O)[C@@H](NC(=O)OC)[C@@H]1CCCOC1 [Example AH, Methyl{(1S)-2-[(2S,5S)-2-ethyl-5-(9-{2-[(2S,5S)-1-{(2S)-2-[(methoxycarbonyl)amino]-3-methylbutanoyl}-5-methylpyrrolidin-2-yl]-1H-imidazol-5-yl}-1,11-dihydroisochromeno[4′,3′:6,7]naphtho[1,2-d]imidazol-2-yl)pyrrolidin-1-yl]-2-oxo-1-[(3S)-tetrahydro-2H-pyran-3-yl]ethyl}carbamate]	0.172	0.021	0.026	0.104	0.031	0.017	0.154
COC(=O)N[C@H](C(=O)N1[C@@H](C)CC[C@H]1c1nc2ccc3cc4c(cc3c2[nH]1)OCc1cc(-c2cnc([C@@H]3CC[C@H](C)N3C(=O)[C@@H](NC(=O)OC)C3(C)CCOCC3)[nH]2)ccc1-4)C(C)C [Example AL, Methyl [(2S)-1-{(2S,5S)-2-[9-(2-{(2S,5S)-1-[(2S)-2-[(methoxycarbonyl)amino]-2-(4-methyltetrahydro-2H-pyran-4-yl)acetyl]-5-methylpyrrolidin-2-yl}-1H-imidazol-5-yl)-1,11-dihydroisochromeno[4′,3′:6,7]naphtho[1,2-d]imidazol-2-yl]-5-methylpyrrolidin-1-yl}-3-methyl-1-oxobutan-2-yl]carbamate]	0.776	0.03	0.02	0.713	0.026	0.028	0.086
COC(=O)N[C@H](C(=O)N1[C@@H](C)CC[C@H]1c1ncc(-c2ccc3c(c2)COc2cc4c(ccc5nc([C@@H]6CC[C@H](C)N6C(=O)[C@H](NC(=O)OC)[C@H]6C[C@@H](C)O[C@@H](C)C6)[nH]c54)cc2-3)[nH]1)C(C)C [Example AN, Methyl {(2S)-1-[(2S,5S)-2-(5-{2-[(2S,5S)-1-{(2R)-2-[(2R,6S)-2,6-dimethyltetrahydro-2H-pyran-4-yl]-2-[(methoxycarbonyl)amino]acetyl}-5-methylpyrrolidin-2-yl]-1,11-dihydroisochromeno[4′,3′:6,7]naphtho[1,2-d]imidazol-9-yl}-1H-imidazol-2-yl)-5-methylpyrrolidin-1-yl]-3-methyl-1-oxobutan-2-yl}carbamate]	4.44	0.049	4.44	4.44	0.852	0.935	4.44
COC(=O)N[C@H](C(=O)N1[C@@H](c2ncc(-c3ccc4c(c3)COc3cc5c(ccc6nc([C@H]7C[C@@H](C)[C@@H](C)N7C(=O)[C@@H](NC(=O)OC)C7C[C@@H](C)O[C@H](C)C7)[nH]c65)cc3-4)[nH]2)C[C@@H](C)[C@H]1C)C1C[C@@H](C)O[C@H](C)C1 (stereo partly drawn) [Example BC, Methyl {(1S)-1-[(2R,6R)-2,6-dimethyltetrahydro-2H-pyran-4-yl]-2-[(2R,3R,5R)-5-(5-{2-[(2R,4R,5R)-1-{(2S)-2-[(2R,6R)-2,6-dimethyltetrahydro-2H-pyran-4-yl]-2-[(methoxycarbonyl)amino]acetyl}-4,5-dimethylpyrrolidin-2-yl]-1,11-dihydroisochromeno[4′,3′:6,7]naphtho[1,2-d]imidazol-9-yl}-1H-imidazol-2-yl)-2,3-dimethylpyrrolidin-1-yl]-2-oxoethyl}carbamate]		2.47	10.1	23.1	8.04	6.24	23.3
CCOC(=O)N[C@H](C(=O)N1[C@@H](C)CC[C@H]1c1ncc(-c2ccc3c(c2)COc2cc4c(ccc5nc([C@@H]6CC[C@H](C)N6C(=O)[C@@H](NC(=O)OCC)C6C[C@@H](C)O[C@H](C)C6)[nH]c54)cc2-3)[nH]1)C1C[C@@H](C)O[C@H](C)C1 (stereo partly drawn) [Example BM, Ethyl {(1S)-1-[(2R,6R)-2,6-dimethyltetrahydro-2H-pyran-4-yl]-2-[(2S,5S)-2-(5-{2-[(2S,5S)-1-{(2S)-2-[(2R,6R)-2,6-dimethyltetrahydro-2H-pyran-4-yl]-2-[(ethoxycarbonyl)amino]acetyl}-5-methylpyrrolidin-2-yl]-1,11-dihydroisochromeno[4′,3′:6,7]naphtho[1,2-d]imidazol-9-yl}-1H-imidazol-2-yl)-5-methylpyrrolidin-1-yl]-2-oxoethyl}carbamate]		0.053	0.034		0.023	0.039	0.143
